In patent US20210269434A1, “TRICYCLIC COMPOUNDS AS INHIBITORS OF KRAS” (Incyte Corporation, priority 2020, published 2021):

These molecules were tested against KRAS G12D (Homo sapiens, UniProt P01116, G12D) (assay: GDP-GTP exchange assay (KRAS_G12D exchange)). Conditions: bodipy loaded KRAS G12D 2.5 nM; 4 hours incubation after GppNHp-SOS1; read-out: G12D_exchange.
Type: biochemical
Summary of the method: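 Fluorescence exchange of bodipy-GDP for GppNHp, SOS1-driven, read at 485/520 nm; IC50 from four-parameter variable-slope fit. Both mutants used 2.5 nM final labelled protein and a 2 h compound pre-incubation. G12C reaction had 500 uM GppNHp and 150 nM SOS1 for 2 h; G12D ran 4 h.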

Chain of KRAS G12D (P01116 1-188 isoform P01116-2 G12D): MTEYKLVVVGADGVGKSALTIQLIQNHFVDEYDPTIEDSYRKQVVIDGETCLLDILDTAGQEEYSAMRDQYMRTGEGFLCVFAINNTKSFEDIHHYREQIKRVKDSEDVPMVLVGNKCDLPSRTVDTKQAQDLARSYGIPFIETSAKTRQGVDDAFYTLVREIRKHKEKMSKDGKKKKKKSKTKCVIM

IC50 [nM]	Compound
1000 to 5000	Cc1nc2c(N3CC(N(C)C)C3)nc3c(F)c(-c4cc(O)cc5ccccc45)c(Cl)cc3c2n1[C@H]1[C@H]2CN[C@@H]1C2 [Example 15, 4-(1-((endo)-2-azabicyclo[2.1.1]hexan-5-yl)-8-chloro-4-(3-(dimethylamino)-azetidin-1-yl)-6-fluoro-2-methyl-1H-imidazo[4,5-c]quinolin-7-yl)naphthalen-2-ol]
1000 to 5000	Cc1ccc2cc(O)cc(-c3c(Cl)cc4c(nc(N5CC(N(C)C)C5)c5ncn([C@H]6[C@H]7CN[C@@H]6C7)c54)c3F)c2c1 [Example 24, 4-(1-((endo)-2-azabicyclo[2.1.1]hexan-5-yl)-8-chloro-4-(3-(dimethylamino)-azetidin-1-yl)-6-fluoro-1H-imidazo[4,5-c]quinolin-7-yl)-6-methylnaphthalen-2-ol]
100 to 1000	CN(C)C1CN(c2nc3c(F)c(-c4cc(O)cc5ccccc45)c(Cl)cc3c3c2nc(CCN)n3[C@H]2[C@H]3CN[C@@H]2C3)C1 [Example 76, 4-(2-(2-aminoethyl)-1-((endo)-2-azabicyclo[2.1.1]hexan-5-yl)-8-chloro-4-(3-(dimethylamino)azetidin-1-yl)-6-fluoro-1H-imidazo[4,5-c]quinolin-7-yl)naphthalen-2-ol]
100 to 1000	CN(C)C1CN(c2nc3c(F)c(-c4cc(O)cc5ccccc45)c(Cl)cc3c3c2nc(-c2cn(C)cn2)n3[C@H]2[C@H]3CN[C@@H]2C3)C1 [Example 78, 4-(1-((endo)-2-azabicyclo[2.1.1]hexan-5-yl)-8-chloro-4-(3-(dimethylamino)-azetidin-1-yl)-6-fluoro-2-(1-methyl-1H-imidazol-4-yl)-1H-imidazo[4,5-c]quinolin-7-yl)naphthalen-2-ol]
100 to 1000	CN(C)C(=O)CCc1nc2c(N3CC(N(C)C)C3)nc3c(Oc4ccccc4)c(-c4cc(O)cc5ccccc45)c(CCC#N)cc3c2n1C1C2CNC1C2 (stereo not drawn) [Example 293, 3-(1-((endo)-2-azabicyclo[2.1.1]hexan-5-yl)-8-(2-cyanoethyl)-4-(3-(dimethylamino)azetidin-1-yl)-7-(3-hydroxynaphthalen-1-yl)-6-phenoxy-1H-imidazo[4,5-c]quinolin-2-yl)-N,N-dimethylpropanamide]
≤ 100	CNC(=O)c1cc(-c2nc3c(F)c(-c4cc(O)cc5ccccc45)c(CCC#N)cc3c3c2nc(CCC(=O)N(C)C)n3C2C3CNC2C3)ccc1F (stereo not drawn) [Example 297, 5-(1-((endo)-2-azabicyclo[2.1.1]hexan-5-yl)-8-(2-cyanoethyl)-2-(3-(dimethylamino)-3-oxopropyl)-6-fluoro-7-(3-hydroxynaphthalen-1-yl)-1H-imidazo[4,5-c]quinolin-4-yl)-2-fluoro-N-methylbenzamide]
≤ 100	CN(C)C(=O)CCc1nc2c(-c3ccc(=O)n(C)c3)nc3c(F)c(-c4cc(O)cc5ccccc45)c(CCC#N)cc3c2n1C1C2CNC1C2 (stereo not drawn) [Example 298, 3-(1-((endo)-2-azabicyclo[2.1.1]hexan-5-yl)-8-(2-cyanoethyl)-6-fluoro-7-(3-hydroxynaphthalen-1-yl)-4-(1-methyl-6-oxo-1,6-dihydropyridin-3-yl)-1H-imidazo[4,5-c]quinolin-2-yl)-N,N-dimethylpropanamide]
≤ 100	CN(C)C(=O)CCc1nc2c(N3CC(N(C)C)C3)nc3c(F)c(-c4cc(O)cc5ccccc45)c(Cc4ccccc4C#N)cc3c2n1C1C2CNC1C2 (stereo not drawn) [Example 299, 3-(1-((endo)-2-azabicyclo[2.1.1]hexan-5-yl)-8-(2-cyanobenzyl)-4-(3-(dimethylamino)azetidin-1-yl)-6-fluoro-7-(3-hydroxynaphthalen-1-yl)-1H-imidazo[4,5-c]quinolin-2-yl)-N,N-dimethylpropanamide]
≤ 100	CN(Cc1ccccn1)C(=O)CCc1nc2c(N3CC(N(C)C)C3)nc3c(F)c(-c4cc(O)cc5ccccc45)c(CCC#N)cc3c2n1C1C2CNC1C2 (stereo not drawn) [Example 301a, 3-(1-((endo)-2-azabicyclo[2.1.1]hexan-5-yl)-8-(2-cyanoethyl)-4-(3-(dimethylamino)azetidin-1-yl)-6-fluoro-7-(3-hydroxynaphthalen-1-yl)-1H-imidazo[4,5-c]quinolin-2-yl)-N-methyl-N-(pyridin-2-ylmethyl)propanamide]
